Test results taken from publication PMC12434521, “Characterization of Next-Generation Inhibitors for the Inward-Rectifier Potassium Channel Kir2.1: Discovery of VU6080824” (ACS Medicinal Chemistry Letters, 2025).

Columns and labels:
human Kir2.1 [1] = biological target: T1, human Kir2.1 (Homo sapiens, UniProt P63252); assay: Kir2.1 thallium flux assay; format: cell-based; settings: for IC50: T-REx-HEK-293 cells expressing human Kir2.1, 4PL fit, top concentration 30 μM, read-out: Thallium Flux Potency IC50
T1 construct: expressed in transfected cells
T1 sequence (P63252 1-427): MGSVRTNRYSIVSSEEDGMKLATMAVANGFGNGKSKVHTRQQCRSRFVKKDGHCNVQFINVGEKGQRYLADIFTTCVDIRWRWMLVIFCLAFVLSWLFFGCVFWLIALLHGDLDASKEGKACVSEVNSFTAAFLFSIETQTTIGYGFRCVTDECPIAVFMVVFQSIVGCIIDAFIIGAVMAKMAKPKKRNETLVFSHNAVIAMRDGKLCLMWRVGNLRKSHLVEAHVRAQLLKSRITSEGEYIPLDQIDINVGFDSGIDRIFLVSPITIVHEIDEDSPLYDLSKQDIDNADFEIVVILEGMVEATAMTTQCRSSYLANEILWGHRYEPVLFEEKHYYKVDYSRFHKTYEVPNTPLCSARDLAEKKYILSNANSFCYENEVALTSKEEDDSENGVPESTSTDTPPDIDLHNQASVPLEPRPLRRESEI
Experimental: Thallium Flux Assay Experimental Conditions
The Tl+ flux assays were conducted as previously described with modifications optimized for Kir2.1 cell line as described below.1
Briefly, stable T-REx-HEK-293 cells expressing human K ir2.1 were cultured in DMEM growth medium (Catalog #11965-092, Gibco, Billings, MT) containing 10% heat-inactivated FBS (Catalog #16140, Gibco), 100 U/mL PenStrep, 5 μg/mL Blasticidin S, and 250 μg/mL Hygromycin.
The day prior to the experiment, cells at ~90% confluency were resuspended in plating media, which consisted of the same components as the growth media, except that heat-inactivated FBS was replaced with dialyzed FBS (Catalog #26400, Gibco). Tetracycline was added to the plating media to achieve a final concentration of 1 μg/ml to induce hKir2.1 expression. Cells were then counted and plated at 15,000 cells/well in black-walled, amine- or PDL- coated, 384-well plates at 20 μl/well (Corning, Corning, NY). On the day of experiment, the media was removed from the cell plate and replaced with 20 μl/well of Tl+-sensitive dye loading solution containing 2.5 μg/ml Thallos-AM (Catalog #11000-050, ION Biosciences, San Marcos, TX) in assay buffer using a Multidrop Combi dispenser (Thermo Fisher Scientific, Walkham, MA). Cell plates loaded with dye solution were incubated for 1 hour at room temperature. Following incubation, the cell plate was washed with HBSS assay buffer containing 20 mM HEPES using a BioTek ELx 405 TS plate washer (Agilent, Santa Clara, CA), leaving 20 μl of assay buffer in each well. The cell plate was then transferred to a Panoptic kinetic imaging plate reader (WaveFront Biosciences, Franklin, TN) for imaging at 1 Hz, 482/35 nm excitation and 536/40 nm emission for 10 seconds. Following this, 20 μl/well of HBSS assay buffer containing test compounds at 2-fold over their final concentrations were added and imaging continued for another eight minutes, after which 10 μl/well of chloride-free Tl+ stimulus solution was added (Catalog #11000-050, ION Biosciences). The final Tl2SO4 concentration in cell plate post-Tl+ stimulus solution addition was 0.25 mM. Images were collected for an additional two minutes. A ten-point concentration series from 30 μM to 2 nM with a 1:3 dilution factor was generated using an Echo liquid handler 650 (Labcyte, San Jose, CA). Final DMSO concentration, 0.3% (v/v) in the assay was constant across all compound concentrations.
The initial slopes of the Tl+-induced fluorescence changes were fit to a four-parameter logistic equation using our in-house software Waveguide to determine potency and efficacy values. […]
Bauer, J. A.; Days, E. L.; Lindsley, C. […]

human Kir2.1 [2] = biological target: T1, human Kir2.1; assay: Kir2.1 manual patch clamp (MPC) assay; format: cell-based; settings: pH 7.4, -120 mV, normalized to 2 mM Ba2+ block; top concentration 10 μM (ML133 30 μM, 5t 3 μM)
Experimental: Manual Patch Claim Assay Experimental Conditions
Whole-cell patch-clamp electrophysiology was used to record K ir2.1 currents from a stably transfected monoclonal T-Rex-HEK-293 cell line with a tetracycline-inducible promoter expressing human Kir2.1, as described previously1 cultured in a 5% CO2 incubator at 37°C. Kir2.1 expression was induced by overnight treatment with 1 µg/mL tetracycline. Cells were dissociated using 0.25% Trypsin-EDTA and seeded onto 12 mm circular coverslips (Electron Microscopy Sciences, PA, USA) for same-day whole-cell patch-clamp recordings. Kir2.1 currents were recorded at room temperature using an AxoPatch 200B amplifier with Clampex 10.7 software (Molecular Devices, USA). The voltage-clamp protocol consisted of a 1-s step to -120 mV from a -80 mV holding potential, followed by a 2-s ramp to +40 mV, repeated every 10 s. Data were sampled at 5 kHz and filtered at 1 kHz. Patch pipettes, pulled from 1.5 mm OD thin-walled capillaries (Warner Instruments, MA, USA) using a Sutter P-1000 puller (Sutter Instrument, CA, USA), had resistances of 2–3 MΩ when filled with intracellular solution containing (mM): 135 KCl, 10 HEPES, 1 EGTA, 2 MgCl2, 2 Na2ATP (pH 7.35, adjusted with KOH). The extracellular solution contained (mM): 135 NaCl, 5 KCl, 2 CaCl2, 1 MgCl2, 5 Glucose, 10 HEPES, 10 Sucrose (pH 7.35, adjusted with NaOH). After establishing stable baseline Kir2.1 currents, cells were perfused with compounds at concentrations of 0.03–30 µM until response saturation (within minutes).
Recordings concluded with a 2 mM Ba2+ solution to isolate Ba2+-sensitive currents, with compound responses expressed as fractions of this current. Current amplitudes at the -120 mV step were analyzed using Clampfit 11.2 (Molecular Devices). IC50 values were calculated by fitting the Hill equation to concentration-response curves (CRCs) using variable -slope nonlinear regression in GraphPad Prism 10.4 (GraphPad Software).
MPC experiments for Kir2.2 and Kir2.3 were conducted in an analogous fashion.1

[3] = Rat PK PBL cassette (i.v.); format: in vivo, Sprague-Dawley rat; settings: Sprague-Dawley, iv, male SD rat, 0.2 mg/kg i.v. cassette
From the text: While ML133 has found use as a Kir2.1 tool molecule across many disease models, the in vivo PK of this and related compounds within the dibenzylamine chemotype have not previously been characterized. As a highly efficient method for profiling the PK of a compound set, we therefore examined ML133 (alongside 9 additional next-generation Kir2.1 inhibitors) in our rat PK PBL cassette dosing platform (Table ). − From this experimental setup, administration of a 4-compound bolus dose, plus a standard control, can be used to determine a variety of PK parameters in a high-throughput fashion. Specifically, Sprague–Dawley (SD) rats were given 0.2 mg/kg of each Kir2.1 inhibitor (i.v. dosing, 4 compounds +1 control, total dose 1 mg/kg) with PK measured across set time points up to 24 h. Additionally, a separate cohort of animals was utilized to assess total plasma-brain levels (PBL, ratio reported as Kp) of compound at a 0.25 time point. In this fashion, standard plasma-based PK parameters (elimination t 1/2, […] (MRT), plasma clearance (CLp), and volume of distribution (Vss)) were measured alongside a parallel assessment of total brain exposure.
PK PBL Cassette Experimental Conditions
4 compounds plus one control were formulated as a solution in ethanol, PEG400, and DMSO (1:3:6 v/v, respectively) at a concentration of 1 mg/mL and administered as a single IV dose (1 mL/kg, 0.2 mg/kg per compound, total 1 mg/kg) to male, Sprague Dawley rats (n = 1) via injection into a surgically -implanted jugular vein catheter. Blood samples were collected serially from a surgically implanted carotid artery catheter in each animal over multiple post -administration time points (0.033, 0.117, 0.25, 0.5, 1, 2, 4, 7, and 24 hours) into chilled, K 2EDTA anticoagulant - fortified tubes and immediately placed on wet ice. The blood samples were then centrifuged (1700 rcf, 5 minutes, 4 °C) to ob tain plasma samples, which were stored at -80 °C until analysis […]
For determination of the brain over plasma ratio (K p), the same cassette of compounds plus control were formulated in ethanol, PEG400, and DMSO (1:3:6 v/v, respectively) and administered as a single IV dose (1 mL/kg, 0.2 mg/kg per compound, total 1 mg/kg) to male, Sprague Dawley rats ( n = 1) via injection into a surgically-implanted jugular vein catheter. At 15 min post dosing, blood sample was collected terminally into chilled, K 2EDTA anticoagulant-fortified tube and immediately placed on wet ice. The bloo d sample was then centrifuged (1700 rcf, 5 minutes, 4 °C) to obtain plasma sample. At the same post-administration time point, whole brain sample was obtained by rapid dissection, rinsed with PBS, and immediately frozen in individual tissue collection box (dry ice). All brain and plasma samples were stored at -80 °C until […]
Samples preparation for bioanalysis
Plasma samples from the in-life phase of the study were thawed at ambient temperature (benchtop), and then aliquots (20 µL per sample) were transferred to a 96-shallow-well (V-bottom) plate. Matrix-matched quality control (QC) samples and a standard curve of each analyte (1 mg/mL DMSO stock solution) were prepared in blank rat plasma (K2EDTA-treated) via serial dilution and transferred (20 µL each) to the plate along with multiple blank plasma samples. MeCN (120 µL) containing IS (10 nM carbamazepine) was added to each well of the plate to precipitate protein. The plate was then centrifuged (4000 rcf, 5 minutes, ambient temperature), and resulting supernatants (60 µL each) were transferred to a new 96-shallow-well (V-bottom) plate containing an equal volume (60 µL per well) of water (Milli-Q purified). The plate was then sealed in preparation for LC-MS/MS analysis.
Preparation of brain samples was identical to that of plasma samples except for the following modifications. While thawing, brains were weighed (inside their collection boxes using a universal empty collection box tare weight) and then subjected to mechanical homogenization […]

IC50 (human Kir2.1 [1])	IC50 (human Kir2.1 [2])	Emax (human Kir2.1 [1]; efficacy from 4PL fit, relative to ML133, read-out: Thallium Flux Efficacy (% Inhibition))	Kp at 0.25 h ([3]; brain and plasma, 0.25 time point (15 min post dosing), read-out: Kp (total brain to plasma ratio))	AUC ([3]; plasma, n = 1, read-out: AUC)	clearance ([3]; plasma, n = 1, read-out: CLp)	half-life ([3]; plasma, n = 1, read-out: Elim. t1/2 (converted))	MRT ([3]; plasma, n = 1, read-out: MRT)	Vd ([3]; plasma, n = 1, read-out: Vss)	Structure (SMILES)
4.3 µM	0.33 µM	–	–	–	–	–	–	–	COc1ccc(CNCc2ccc(-c3cccc(OC)c3)cc2)cc1 [Compound 11]
5.4 µM	0.21 µM	–	–	–	–	–	–	–	COc1ccc(CNCc2ccc(-c3cccc(OC)c3)cc2)cc1 [Compound 9]
8.5 µM	–	99%	2.29	162 ng·h/mL	20.6 mL/min/kg	1.73 h	1.31 h	1.62 L/kg	COc1ccc(CNCc2ccc(-c3cccc(C)c3)cc2)cc1 [Compound 5r]
4.7 µM	0.21 µM	–	–	–	–	–	–	–	COc1ccc(CNCc2ccc(-c3cccc(OC)c3)cc2)cc1 [Compound 13]
